How the values were obtained:
Type in all cases: in vivo
rats [1] = assay: Animal models of sexual function (behavioural measures for sexual activity); conditions: penile erection, ejaculatory behaviour, mating frequency in male rats, receptive behaviours in female rats
Description: In animal models, various behavioural measures for sexual function can be used in animal models depending on the targeted dysfunction in humans, e.g. reduced libido, anorgasmia, or ejaculation disorders. Measures for sexual activity in animals include fascilitation or prolongation of penile erection, ejaculatory behaviour or frequency of mating behaviour in male rats, or the percentage of receptive behaviours in female rats [e.g.: S. Ahlenius and K. Larsson, Neurochem. Res., 1997, 22: 1065-1070; S. Ahlenius and K. Larsson, Psychopharmacology, 1998, 137: 374-382; J. Vega-Matuszcyk et al., Pharmacol. Biochem. Behav., 1998, 60: 527-532; J. M. Cantor et al., Psychopharmacology, 1999; 144: 355-362]. 1-[4-(5-cyancindol-3-yl)butyl]-4-(2-carbamoyl-benzofuran-5-yl)-piperazine or one of its physiologically acceptable salts, in particular 1-[4-(5-cyanoindol-3-yl)butyl]-4-(2-carbamoyl-benzofuran-5-yl)-piperazine hydrochloride, were effective on various measures mentioned before.

mice [2] = assay: Light-Dark Choice Test (model for generalized anxiety disorders); conditions: oral dose of 10 mg/kg, 5 min
Protocol: A typical model for generalized anxiety disorders is the Light-Dark Chaise Test […] according to J. N. Crawly, Pharmacol. Biochem Behav. 1981,15: 695-699.
The light-dark choise apparatus consists of two connected boxes with one box darkened and the other one highly illuminated. A mouse is placed in one box, and the time spent in lit box and the number of transitions between boxes are measured over a period of 5 min. Normal mice only have low numbers of entries to the lit compartment and spent most time in the dark compartment.
1-[4-(5-cyanoindol-3-yl)butyl]-4-(2-carbamoyl-benzofuran-5-yl)-piperazine or one of its physiologically acceptable salts, in particular 1-[4-(5-cyanoindol-3-yl)butyl]-4-(2-carbamoyl-benzofuran-5-yl)-piperazine hydrochloride, following oral application dose -dependently increase the number of transitions and time spent in lit compartment. For example, an oral dose of 10 mg/kg of 1-[4-(5-cyanoindol-3-yl)butyl]-4-(2-carbamoyl-benzofuran-5-yl)-piperazine hydrochloride increased the number of transitions by 73% and time spent in lit compartment by 31%.

[3] = Cumulative Food Intake / development of body weight, rats or mice; conditions: free access to food
Protocol: A typical animal model for eating disorders and/or obesity and/or anorexia is named Cumulative Food Intake according to H. C. Jackson, A. M, Needham, L. J. Hutchins, S. E. Mazurkiewicz, D. J. Heal, Br. J. Pharmacol., 1997, 121: 1758-1762, which can be utilized in various species. Usually, rats or mice are given free access to food, and the development of body weight is measured over time. The test can be performed in both starved and non-starved rats or mice. Moreover, chronic or acute administration of a medication can be investigated.
Thus, differential effects on body weight indicating therapeutic efficacy in either obesity or anorexia depending on the dose range used are evident.

rats [4] = assay: Elevated Plus Maze (model for agoraphobia), rats; conditions: 10 mg/kg p.o., 3 min test period
Protocol: (§1) A typical model for Agoraphobia is named Elevated Plus Maze according to S. Pellow, P. Chopin, S. E. File, M. Briley, J. Neurosci. Meth., 1985,14: 145-167.
(§2) The apparatus consists of an X-shaped platform elevated from the floor, with two “open” unprotected arms and two “closed” protected arms, with animals having free access to both arms. The rat or mouse is placed in the centre of the arms, and the number of entires made and the time spent on the open arms is measured in a 3 min test period. Normal animals have very low basal levels, i.e. avoid entering the open arms and stay only a for a very brief period on open arms.
(§3) In rats, a dose of 10 mg/kg p.o. increased number of entries by 56% and time spent on open arms by 76%.

rats [5] = tested on: rats
Protocol: A typical animal model is the drug discrimination procedure in rats using cocaine as the stimulus cue (e.g. D. M. Wood and M. W. Emmett-Oglesby, J. Pharmacol. Exp. Ther., 1986; 237: 120-125; D. Huang and M. C. Wilson, Pharmacol. Biochem. Behav., 1986; 24: 205-210; J. M. Witkin at al., J. Pharmacol. Exp. Ther, 1991; 257: 706-713). Rats are trained to discriminate 10 mg/kg cocaine from saline in a two-lever discrimination procedure. Compounds which substitute for cocaine produce a dose-dependent increase in cocaine-appropriate responding, i.e. in selecting the cocaine-paired lever.
1-[4-(5-cyanoindol-3-yl)butyl]-4-(2-carbamoyl-benzofuran-5-yl)-piperazine or one of its physiologically acceptable salts, in particular 1-[4-(5-cyanoindol-3-yl)butyl]-4-(2-carbamoyl-benzofuran-5-yl)-piperazine hydrochloride, dose-dependently but only partially substituted for cocaine (maximally 60% choise of cocaine-paired lever at 50 mg/kg p.o.).

mice [6] = assay: Elevated Plus Maze (model for agoraphobia), mice; conditions: 10 mg/kg p.o., 3 min test period
Protocol: as §1, §2, §3

mice or rats = assay: Hyperactivity induced by a mixture of dexamphetamine and chlordiazepoxide (model of mania/bipolar disorders); conditions: compared with lithium and valproate
Description: A typical animal model of mania/bipolar disorders is the hyperactivity induced by a mixture of dexamphetamine and chlordiazepoxide according to A. L. Vale and F. Ratcliffe, Psychopharmacology, 1987; 91: 352-355, and B. J. Cao and N. A. Peng, Eur. J. Pharmacol., 1993; 237: 177-181. The dexamphetamine-chlordiazepoxide mixture induces strong hyperactivity in mice or rats.

## Cl.N#Cc1ccc2[nH]cc(CCCCN3CCN(c4ccc5oc(C(N)=O)cc5c4)CC3)c2c1 [1-[4-(5-cyanoindol-3-yl)butyl]-4-(2-carbamoyl-benzofuran-5-yl)-piperazine hydrochloride]
Rats [1]
  effect on measures for sexual activity: effective
Mice [2]
  increase of number of transitions: 73%
  increase of time spent in lit compartment: 31%
[3]; orally for 4 consecutive days, lower doses of up to 50 mg/kg
  body weight at lower doses: increased body weight
[3]; orally up to 360 mg/kg for 4 consecutive days, higher doses
  development of body weight at higher doses: reduced development of body weight
Rats [4]
  increase of number of entries on open arms: 56%
  increase of time spent on open arms: 76%
Rats [5]; rat, in vivo
  stimulus drug property by itself (abuse potential): does not serve as a stimulus drug by itself
Rats [5]; rats trained on 10 mg/kg cocaine vs saline, 50 mg/kg p.o.
  maximal choice of cocaine-paired lever (partial substitution for cocaine): 60%
Mice [6]
  increase of number of entries on open arms: 157%
  increase of time spent on open arms: 105%
Mice or rats
  inhibition of hyperactivity induced by the dexamphetamine-chlordiazepoxide mixture: to the same degree as do lithium and valproate

Source: US7642261B2, “Use of 1-[4-(5-cyanoindol-3-yl)butyl]-4-(2-carbamoyl-benzofuran-5-yl)-piperazine and its physiologically acceptable salts” (Merck Patent GmbH, priority 2002, dated 2010)
